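Dose response: 5 concentrations. Exposure: 48 h. Format: 96-well plates. Endpoint: linear interpolation; highest concentration if not reached. GI50 marks 50% less growth. At the TGI there is no net growth.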
Legend:
Assay in all cases: NCI tumour cell line growth inhibition, 48 h
[1] = test system: 786-0 renal
[2] = test system: A498 renal
[3] = test system: A549 NSCLC
[4] = test system: ACHN renal
[5] = test system: CAKI-1 renal
[6] = test system: CCRF-CEM leukemia
[7] = test system: COLO 205 colon
[8] = test system: DLD-1 colon
[9] = test system: DMS 114 small cell lung
[10] = test system: DMS 273 small cell lung
[11] = test system: DU-145 prostate
[12] = test system: EKVX NSCLC
[13] = test system: HCC-2998 colon
[14] = test system: HCT-116 colon
[15] = test system: HCT-15 colon
[16] = test system: HL-60(TB) leukemia
[17] = test system: HOP-18 NSCLC
[18] = test system: HOP-62 NSCLC
[19] = test system: HOP-92 NSCLC
[20] = test system: HS 578T breast
[21] = test system: HT29 colon
[22] = test system: IGROV1 ovarian
[23] = test system: K-562 leukemia
[24] = test system: KM12 colon
[25] = test system: KM20L2 colon
[26] = test system: LOX IMVI melanoma
[27] = test system: LXFL 529 NSCLC
[28] = test system: M14 melanoma
[29] = test system: M19-MEL melanoma
[30] = test system: MALME-3M melanoma
[31] = test system: MCF7 breast
[32] = test system: MDA-MB-231 breast
[33] = test system: MDA-MB-435
[34] = test system: MDA-N
[35] = test system: MOLT-4 leukemia
[36] = test system: NCI-H226 lung
[37] = test system: NCI-H23 lung
[38] = test system: NCI-H460 lung
[39] = test system: NCI-H522 lung
[40] = test system: NCI/ADR-RES ovarian
[41] = test system: OVCAR-3 ovarian
[42] = test system: OVCAR-4 ovarian
[43] = test system: OVCAR-5 ovarian
[44] = test system: OVCAR-8 ovarian
[45] = test system: P388 leukemia
[46] = test system: P388/ADR leukemia
[47] = test system: PC-3 prostate
[48] = test system: RPMI-8226 leukemia
[49] = test system: RXF 393 renal
[50] = test system: RXF-631 renal
[51] = test system: SF-268 CNS
[52] = test system: SF-295 CNS
[53] = test system: SF-539 CNS
[54] = test system: SK-MEL-2 melanoma
[55] = test system: SK-MEL-28 melanoma
[56] = test system: SK-MEL-5 melanoma
[57] = test system: SK-OV-3 ovarian
[58] = test system: SN12C renal
[59] = test system: SN12K1 renal
[60] = test system: SNB-19 CNS
[61] = test system: SNB-75 CNS
[62] = test system: SNB-78 CNS
[63] = test system: SR leukemia
[64] = test system: SW-620 colon
[65] = test system: T-47D breast
[66] = test system: TK-10 renal
[67] = test system: U251 CNS
[68] = test system: UACC-257 melanoma
[69] = test system: UACC-62 melanoma
[70] = test system: UO-31 renal

CCCC/C=C1/CCC(CN(C)C)C1=O (stereo unspecified)
TGI [1]: 2.9 µM
TGI [2]: 15.9 µM
TGI [3]: 16.5 µM
TGI [4]: 4.6 µM
TGI [5]: 1.78 µM
GI50 [6]: 0.424 µM
TGI [6]: 1.76 µM
TGI [7]: 3.04 µM
TGI [8]: 2.16 µM
TGI [9]: 3.92 µM
TGI [10]: 5.76 µM
TGI [11]: 28.9 µM
GI50 [12]: 2.14 µM
TGI [12]: 4.48 µM
TGI [13]: 3.07 µM
TGI [14]: 4.01 µM
TGI [15]: 1.08 µM
TGI [16]: 4.63 µM
TGI [17]: 5.56 µM
TGI [18]: 35.2 µM
TGI [19]: 3.83 µM
TGI [20]: 15 µM
GI50 [21]: 2.3 µM
TGI [21]: 4.7 µM
TGI [22]: 10.1 µM
TGI [23]: 3.79 µM
TGI [24]: 2.31 µM
TGI [25]: 5.59 µM
TGI [26]: 2.91 µM
TGI [27]: 1.36 µM
TGI [28]: 3.26 µM
TGI [29]: 3.05 µM
TGI [30]: 4.07 µM
TGI [31]: 4.34 µM
TGI [32]: 9.03 µM
TGI [33]: 23.1 µM
TGI [34]: 5.2 µM
GI50 [35]: 1.21 µM
TGI [35]: 4.15 µM
TGI [36]: 22.8 µM
TGI [37]: 8.18 µM
GI50 [38]: 9.87 µM
TGI [38]: 26.8 µM
TGI [39]: 1.39 µM
TGI [40]: 15 µM
TGI [41]: 3.72 µM
TGI [42]: 8.27 µM
GI50 [43]: 0.0971 µM
TGI [43]: 12.3 µM
TGI [44]: 4.08 µM
TGI [45]: 0.366 µM
TGI [46]: 0.396 µM
TGI [47]: 27.2 µM
TGI [48]: 0.897 µM
TGI [49]: 3.38 µM
TGI [50]: 3.27 µM
TGI [51]: 5.91 µM
TGI [52]: 13 µM
TGI [53]: 6.05 µM
TGI [54]: 10.1 µM
TGI [55]: 3.93 µM
TGI [56]: 22 µM
TGI [57]: 25.1 µM
TGI [58]: 3.63 µM
TGI [59]: 1.9 µM
TGI [60]: 12.3 µM
TGI [61]: 6.99 µM
TGI [62]: 5.21 µM
TGI [63]: 2.99 µM
TGI [64]: 2.88 µM
TGI [65]: 2.64 µM
TGI [66]: 2.51 µM
TGI [67]: 4.19 µM
TGI [68]: 5.26 µM
TGI [69]: 4.96 µM
TGI [70]: 5.97 µM

Reference: PubChem BioAssay (NCI)
